In patent publication US20060258683A1, “Para-sulfonyl substituted phenyl compounds as modulators of ppars” (priority 2003, published 2006):

Experiments:
Format in all cases: cell-based
PPARδ = target: T1, PPARδ (Homo sapiens, UniProt Q03181); experiment: PPAR-delta EC50, functional cell (transactivation) assay
T1 construct: expressed in transfected cells; host or cells: CV-1 cells
T1 sequence (Q03181 211-439 limits assumed): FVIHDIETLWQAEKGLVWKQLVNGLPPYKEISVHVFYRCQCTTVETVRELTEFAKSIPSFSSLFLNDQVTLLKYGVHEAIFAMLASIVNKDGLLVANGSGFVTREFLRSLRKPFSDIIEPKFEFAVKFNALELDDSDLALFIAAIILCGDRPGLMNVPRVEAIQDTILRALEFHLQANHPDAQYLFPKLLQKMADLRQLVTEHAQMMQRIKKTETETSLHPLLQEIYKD
From the text: (§1) The following transfection assay methods are provided by way of example only. Compounds may be screened for functional potency in transient transfection assays in CV-1 cells for their ability to activate the PPAR subtypes (transactivation assay). A previously established chimeric receptor system was utilized to allow comparison of the relative transcriptional activity of the receptor subtypes on the same target gene and to prevent endogenous receptor activation from complicating the interpretation of results. See, for example, Lehmann, J. M.; Moore, L. B.; Smith-Oliver, T. A; Wilkinson, W. O.; Willson, T. M.; Kliewer, S. A., An antidiabetic thiazolidinedione is a high affinity ligand for peroxisome proliferator-activated receptor γ(PPARγ), J. Biol. Chem., 1995, 270, 12953-6. The ligand binding domains for murine and human PPAR-alpha, PPAR-gamma, and PPAR-delta are each fused to the yeast transcription factor GAL4 DNA binding domain. CV-1 cells were transiently transfected with expression vectors for the respective PPAR chimera along with a reporter construct containing five copies of the GAL4 DNA binding site driving expression of secreted placental alkaline phosphatase (SPAP) and p-galactosidase. After 16 h, the medium is exchanged to DME medium supplemented with 10% delipidated fetal calf serum and the test compound at the appropriate concentration. After an additional 24 h, cell extracts are prepared and assayed for alkaline phosphatase and pgalactosidase activity. Alkaline phosphatase activity was corrected for transfection efficiency using the p-galactosidase activity as an internal standard (see, for example, Kliewer, S. A., et. al. Cell 1995, 83, 813-819. Rosiglitazone is used as a positive control in the hPPARγ assay. The positive control in the hPPAR-alpha and hPPAR-delta assays was 2-[4-(2-(3-(4-fluorophenyl)-1heptylureido)ethyl)-phenoxy]-2-methylpropionic acid, which can be prepared as described in Brown, Peter J., et. al. Synthesis (7), 778-782 (1997), or patent publication WO 9736579.
(§2) Compounds of Examples 1-41 were assayed to measure their biological activity with respect to their EC50 values and efficacy for modulating PPAR-alpha, PPAR-gamma, and PPAR-delta as set forth in Table 2.

PPARγ = target: T2, PPARγ (Homo sapiens, UniProt P37231); experiment: PPAR-gamma EC50, functional cell (transactivation) assay
T2 construct: expressed in transfected cells; host or cells: CV-1 cells
T2 sequence (P37231 238-503 limits assumed): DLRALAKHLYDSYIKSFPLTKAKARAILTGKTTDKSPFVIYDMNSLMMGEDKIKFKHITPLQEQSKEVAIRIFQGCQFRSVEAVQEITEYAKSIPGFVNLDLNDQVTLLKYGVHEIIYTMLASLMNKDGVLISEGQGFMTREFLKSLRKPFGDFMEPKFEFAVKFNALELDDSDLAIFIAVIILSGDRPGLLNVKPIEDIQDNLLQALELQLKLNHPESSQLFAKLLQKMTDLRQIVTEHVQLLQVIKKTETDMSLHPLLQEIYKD
From the text: as §1, §2

PPARα = target: T3, PPARα (Homo sapiens, UniProt Q07869); experiment: PPAR-alpha EC50, functional cell (transactivation) assay
T3 construct: expressed in transfected cells; host or cells: CV-1 cells
T3 sequence (Q07869 239-466 limits assumed): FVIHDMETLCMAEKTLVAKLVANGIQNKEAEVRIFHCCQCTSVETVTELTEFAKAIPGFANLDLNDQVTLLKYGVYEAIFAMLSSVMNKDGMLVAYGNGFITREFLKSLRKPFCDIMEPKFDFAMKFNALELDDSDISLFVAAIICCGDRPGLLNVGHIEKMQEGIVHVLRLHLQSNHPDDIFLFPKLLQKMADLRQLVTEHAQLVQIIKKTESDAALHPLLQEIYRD
From the text: as §1, §2

EC50 (PPARδ) [µM]	EC50 (PPARγ) [µM]	EC50 (PPARα) [µM]	SMILES
1 to 100	> 100	> 100	CC(C)(Oc1ccc(S(=O)(=O)N2CCN(c3ccccc3)CC2)cc1)C(=O)O
1 to 100	1 to 100	1 to 100	Cc1cc(S(=O)(=O)N2CCN(C(c3ccccc3)c3ccc(Cl)cc3)CC2)ccc1OC(C)(C)C(=O)O (stereo not drawn) [drawing 127]
1 to 100	1 to 100	> 100	Cc1cc(S(=O)(=O)N2CCN(c3ccccc3)CC2)ccc1OC(C)(C)C(=O)O
1 to 100	1 to 100	1 to 100	CCOc1ccccc1N1CCN(S(=O)(=O)c2ccc(OC(C)(C)C(=O)O)c(C)c2)CC1
1 to 100	1 to 100	> 100	Cc1cc(S(=O)(=O)N2CCN(c3ccccc3Cl)CC2)ccc1OC(C)(C)C(=O)O
< 1	1 to 100	1 to 100	Cc1cc(S(=O)(=O)N2CCN(c3ccc(Cl)c(Cl)c3)CC2)ccc1OC(C)(C)C(=O)O
1 to 100	1 to 100	> 100	Cc1cc(S(=O)(=O)N2CCN(c3ccc(C(C)(C)C)cc3)CC2)ccc1OC(C)(C)C(=O)O
1 to 100	1 to 100	> 100	Cc1cc(S(=O)(=O)N2CCN(c3ccc([N+](=O)[O-])cc3)CC2)ccc1OC(C)(C)C(=O)O
> 100	> 100	> 100	CC(C)(Oc1ccc(S(=O)(=O)N2CCN(c3ccccn3)CC2)cc1)C(=O)O
1 to 100	1 to 100	> 100	Cc1cc(S(=O)(=O)N2CCN(CC3CCCCC3)CC2)ccc1OC(C)(C)C(=O)O
1 to 100	> 100	> 100	CC(C)(Oc1ccc(S(=O)(=O)N2CCN(c3ccc(F)cc3)CC2)cc1)C(=O)O
1 to 100	> 100	> 100	Cc1cc(S(=O)(=O)N2CCN(C(=O)c3ccco3)CC2)ccc1OC(C)(C)C(=O)O
1 to 100	1 to 100	> 100	Cc1cc(S(=O)(=O)N2CCN(c3ccc(C(F)(F)F)cc3[N+](=O)[O-])CC2)ccc1OC(C)(C)C(=O)O
1 to 100	1 to 100	> 100	CC(C)(Oc1ccc(S(=O)(=O)N2CCN(c3cccc(C(F)(F)F)c3)CC2)cc1)C(=O)O
1 to 100	> 100	> 100	Cc1cccc(N2CCN(S(=O)(=O)c3ccc(OC(C)(C)C(=O)O)cc3)CC2C)c1 (stereo not drawn)
< 1	1 to 100	> 100	Cc1cc(S(=O)(=O)N2CCN(c3ccccc3F)CC2)ccc1OC(C)(C)C(=O)O
1 to 100	1 to 100	> 100	COc1ccc(N2CCN(S(=O)(=O)c3ccc(OC(C)(C)C(=O)O)c(C)c3)CC2)cc1
1 to 100	1 to 100	1 to 100	Cc1cc(S(=O)(=O)N2CCN(C(c3ccc(F)cc3)c3ccc(F)cc3)CC2)ccc1OC(C)(C)C(=O)O
1 to 100	> 100	> 100	Cc1cc(S(=O)(=O)N2CCN(CCc3ccccc3)CC2)ccc1OC(C)(C)C(=O)O
1 to 100	1 to 100	> 100	Cc1ccc(C)c(N2CCN(S(=O)(=O)c3ccc(OC(C)(C)C(=O)O)c(C)c3)CC2)c1
1 to 100	1 to 100	1 to 100	COc1ccc(N2CCN(S(=O)(=O)c3ccc(OC(C)(C)C(=O)O)c(C)c3)CC2)cc1OC

EC50 (PPARδ) [µM]	EC50 (PPARγ) [µM]	EC50 (PPARα) [µM]	SMILES
1 to 100	1 to 100	> 100	COc1ccccc1N1CCN(S(=O)(=O)c2ccc(OC(C)(C)C(=O)O)c(C)c2)CC1
1 to 100	> 100	> 100	Cc1cc(S(=O)(=O)N2CCN(c3cc(Cl)ccc3C)C(C)C2)ccc1OC(C)(C)C(=O)O (stereo not drawn)
1 to 100	1 to 100	1 to 100	CC(C)(Oc1ccc(S(=O)(=O)N2CCN(c3ccc(Cl)c(Cl)c3)CC2)cc1)C(=O)O
1 to 100	> 100	> 100	Cc1cc(S(=O)(=O)N2CCN(c3ccc(C#N)cc3)CC2)ccc1OC(C)(C)C(=O)O
1 to 100	1 to 100	1 to 100	CCc1cnc(N2CCN(S(=O)(=O)c3ccc(OC(C)(C)C(=O)O)cc3)CC2)nc1
1 to 100	1 to 100	> 100	Cc1cc(S(=O)(=O)N2CCN(Cc3ccc(F)cc3)CC2)ccc1OC(C)(C)C(=O)O
1 to 100	1 to 100	> 100	Cc1cc(S(=O)(=O)N2CCN(c3ccccc3C#N)CC2)ccc1OC(C)(C)C(=O)O
1 to 100	1 to 100	1 to 100	COc1cccc(N2CCN(S(=O)(=O)c3ccc(OC(C)(C)C(=O)O)c(C)c3)CC2)c1
1 to 100	1 to 100	1 to 100	Cc1cc(S(=O)(=O)N2CCN(C(c3ccccc3)c3ccc(Cl)cc3)CC2)ccc1OC(C)(C)C(=O)O (stereo not drawn) [drawing 116]
1 to 100	1 to 100	> 100	Cc1cc(S(=O)(=O)N2CCN(c3cccc(Cl)c3)CC2)ccc1OC(C)(C)C(=O)O
1 to 100	> 100	> 100	CC(C)(Oc1ccc(S(=O)(=O)N2CCN(c3ccccc3F)CC2)cc1)C(=O)O
< 1	1 to 100	> 100	Cc1cc(S(=O)(=O)N2CCN(c3ccc(F)cc3)CC2)ccc1OC(C)(C)C(=O)O
1 to 100	> 100	> 100	Cc1ccc(N2CCN(S(=O)(=O)c3ccc(OC(C)(C)C(=O)O)c(C)c3)CC2C)cc1C (stereo not drawn)
1 to 100	1 to 100	> 100	Cc1cc(S(=O)(=O)N2CCN(C/C=C/c3ccccc3)CC2)ccc1OC(C)(C)C(=O)O
1 to 100	1 to 100	> 100	Cc1cc(S(=O)(=O)N2CCN(C(c3ccccc3)c3ccccc3)CC2)ccc1OC(C)(C)C(=O)O
< 1	1 to 100	> 100	Cc1cc(S(=O)(=O)N2CCN(c3ccc(Cl)cc3)CC2)ccc1OC(C)(C)C(=O)O
< 1	1 to 100	> 100	Cc1cccc(N2CCN(S(=O)(=O)c3ccc(OC(C)(C)C(=O)O)c(C)c3)CC2C)c1 (stereo not drawn)
1 to 100	1 to 100	> 100	Cc1ccc(N2CCN(S(=O)(=O)c3ccc(OC(C)(C)C(=O)O)c(C)c3)CC2)c(C)c1
1 to 100	> 100	> 100	Cc1cc(S(=O)(=O)N2CCN(C3CCCCC3)CC2)ccc1OC(C)(C)C(=O)O
1 to 100	> 100	1 to 100	Cc1ccc(N2CCN(S(=O)(=O)c3ccc(OC(C)(C)C(=O)O)cc3)CC2)c(C)c1
< 1	1 to 100	> 100	Cc1cc(S(=O)(=O)N2CCN(c3cccc(Br)c3)CC2)ccc1OC(C)(C)C(=O)O
